The source made the active and inactive calls. No cut-off for these calls is given here.
What was measured:
[1] = biological target: T1, Olfactory receptor 5K1 (Homo sapiens) (UniProt Q8NHB7); test: Antagonist activity at human OR5K1 expressed in HEK293 cells assessed as inhibition of 2,6-dimethylpyrazine-induced response at 100 uM by luciferase reporter gene assay; type: functional, cell-based
T1 sequence (whole entry): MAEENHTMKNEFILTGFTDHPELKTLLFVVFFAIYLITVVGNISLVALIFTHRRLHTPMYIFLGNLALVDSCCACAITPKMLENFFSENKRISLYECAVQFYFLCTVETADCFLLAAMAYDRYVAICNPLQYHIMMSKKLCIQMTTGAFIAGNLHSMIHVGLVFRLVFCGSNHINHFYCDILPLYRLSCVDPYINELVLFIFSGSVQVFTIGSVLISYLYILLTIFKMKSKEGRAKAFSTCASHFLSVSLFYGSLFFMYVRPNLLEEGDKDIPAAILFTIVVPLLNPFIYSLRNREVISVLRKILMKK

[2] = species: Homo sapiens; test: Inhibition of 2,6-dimethylpyrazine-induced odor assessed as strength of odor on cloth smelled by subjects; type: functional, organism-based

Row | Structure (SMILES) | inhibition [1] | inhibition [2]
1 | C[C@@H]1[C@@H]2C(=O)C[C@H]3[C@@H]2C(C)(C)CCC[C@]13C | > 75% | 
2 | CC(C)=CCC/C(C)=C/CO | > 40% | Active
3 | O=C1CCCCC/C=C\CCCCCCCCO1 | > 50% | 
4 | CCC(O)COC1CCCCC1C(C)(C)C (configuration not stated) | > 75% | Active
5 | CCCCCCCC1CCC(=O)O1 (configuration not stated) | > 50% | Active
6 | CC1=CC(C)C(C=O)CC1 (configuration not stated) | > 40% | Active
7 | O=C1CCCCCCCCCCCCCCO1 | > 40% | 
8 | CC(=O)c1cc(C(C)(C)C)cc2c1CCC2(C)C | > 40% | 
9 | CC1=CC(O)CC(C)C2CC(=C(C)C)CC12 (configuration not stated) | > 75% | 
10 | CC(C=O)Cc1ccc2c(c1)OCO2 (configuration not stated) | > 40% | Active
11 | C=CCCC(=O)C1=CCCC(C)(C)C1 | > 40% | Active
12 | CC(=O)c1c(C)c([N+](=O)[O-])c(C(C)(C)C)c([N+](=O)[O-])c1C | > 40% | 
13 | CC(C=O)c1ccccc1 (configuration not stated) | > 50% | 
14 | CC(C)=CCCC(C)CCOCC=O (configuration not stated) | > 40% | 
15 | C[C@@H]1CCCCCCCCCCCCC(=O)C1 | > 50% | 
16 | O=C(OCCc1ccccc1)c1ccccc1O | > 75% | 
17 | CC1(C)CCCC2(C)C1CCC1(C)OCCC12 (configuration not stated) | > 50% | 
18 | CCCCCCOC(=O)c1ccccc1O | > 40% | 
19 | CCOCOC1CCCCCCCCCCC1 | > 50% | 
20 | CC1C/C=C/CCCCCCCCCC(=O)C1 (configuration not stated) | > 50% | Active
21 | O=C1CCCCCCCCCCCC(=O)OCCO1 | > 40% | 
22 | O=C/C=C/c1ccccc1 | > 50% | 
23 | OCCCCCCc1ccccc1 | > 40% | 
24 | C/C=C/c1ccc(OCc2ccccc2)c(OC)c1 | > 50% | 
25 | CC1=CCC(C(C)CC2CCCC2=O)CC1 (configuration not stated) | > 50% | 
26 | CCCCC/C(C=O)=C\c1ccccc1 | > 75% | 
27 | CC(=O)c1ccc2ccccc2c1 | > 50% | Active

Row | Structure (SMILES) | inhibition [1] | inhibition [2]
28 | CC12CCC(C3(CCCC3)C1=O)C2(C)C (configuration not stated) | > 50% | 
29 | CC(C=O)Cc1ccc(C(C)(C)C)cc1 (configuration not stated) | > 50% | Active
30 | CC(C)=CCC/C(C)=C/C=O | > 75% | 
31 | CC(C=O)C1CCCCC1 (configuration not stated) | > 50% | 
32 | CCCCCC1=C(C)CCC1=O | > 40% | 
33 | CC(=O)/C=C/C1=C(C)CCCC1(C)C | > 75% | Active
34 | CC(=O)C1(C)CC2=C(CCCC2(C)C)CC1C (configuration not stated) | > 75% | 
35 | CCCCCC/C(C=O)=C\c1ccccc1 | > 50% | 
36 | CC/C(=C\CC1CC=C(C)C1(C)C)CO (configuration not stated) | > 75% | 
37 | CC(C)CCCC(C)CCO (configuration not stated) | > 50% | 
38 | CC(=O)/C(C)=C/C1C(C)=CCCC1(C)C (configuration not stated) | > 50% | Active
39 | CC(C)[C@@H]1CC[C@@H](C)C[C@H]1O | > 50% | 
40 | CC/C=C(\C)C(O)CCCCC (configuration not stated) | > 75% | Active
41 | C/C=C/C(=O)C1=C(C)C=CCC1(C)C | > 40% | Active
42 | CC(=O)c1cc2c(cc1C)C(C)(C)C(C)CC2(C)C (configuration not stated) | > 75% | 
43 | CC1=CCC(C/C=C(\C)CO)C1(C)C (configuration not stated) | > 50% | Active
44 | CC1=CC(C)C(C)C(C=O)C1 (configuration not stated) | > 40% | 
45 | CC(=O)C1=C(C)[C@@H]2C[C@@]3(C1)[C@H](C)CC[C@H]3C2(C)C | > 50% | 
46 | CC(=O)O[C@]1(C)CC[C@H]2C(C)(C)[C@@H]3C[C@@]21CC[C@H]3C | > 50% | 
47 | C=C(OCC)C1C(C)(C)CC(=O)CC1(C)C | > 50% | 
48 | CC(C)[C@H]1CC[C@@H](CO)CC1 | > 40% | 
49 | CO[C@]1(C)CC[C@H]2C(C)(C)[C@@H]3C[C@@]21CC[C@H]3C | > 50% | 
50 | CC(C)=CCCC(C)CC=O (configuration not stated) | > 50% | 
51 | C=CCc1ccc(O)c(OC)c1 | > 40% | 
52 | Cc1ccc(C(C)C)c(O)c1 | > 75% | 
53 | CC(C=O)Cc1ccc(C(C)C)cc1 (configuration not stated) | > 75% | 
